In patent publication US20110306597A1, “Nicotinamide Derivatives” (priority 2008, published 2011) one finds IC50 data, which are given here for 43 compounds.

pIC50: −log10 of the molar value. A value given as a limit tells only on which side of the number the result lay.

human recombinant H-PGDS, sequence (O60760 whole entry): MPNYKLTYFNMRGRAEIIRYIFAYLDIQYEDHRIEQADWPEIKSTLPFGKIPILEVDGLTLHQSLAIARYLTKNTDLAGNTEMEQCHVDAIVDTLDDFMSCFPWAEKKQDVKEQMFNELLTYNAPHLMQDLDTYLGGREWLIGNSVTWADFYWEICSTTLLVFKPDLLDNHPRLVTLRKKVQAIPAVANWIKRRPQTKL

The target in this experiment is human recombinant H-PGDS (Homo sapiens, UniProt O60760). As to the kind of experiment: Fluorescence Intensity h-PGDS TBA Enzyme Assay. Type of experiment: biochemical. The following applies: 1:175,000 human recombinant H-PGDS, highest inhibitor concentration typically 1 μM. Put shortly:
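Readout is PGH2 depletion: after a 42 s reaction with 5.0 μM PGH2 and 2.5 mM glutathione (pH 8.0 Tris, 10 min inhibitor preincubation), Fe(II) converts leftover PGH2 to MDA, which forms a fluorescent TBA complex. IC50s come from 11-point, 3-fold duplicate curves, 4-parameter fit.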
By pIC50 is commonly meant the negative decadic logarithm of the IC50, by convention in mol/L. For the compound `COc1cccc(-c2ccc(C(=O)NCc3ccc(OC)c(OC)c3)cn2)c1` [Example 275, N-(3,4-Dimethoxybenzyl)-6-(3-methoxyphenyl)nicotinamide], the pIC50 is 6.75.

On to `O=C(NCCN1CCOC1=O)c1ccc(-c2ccccc2)nc1` [Example 359, N-[2-(2-Oxo-1,3-oxazolidin-3-yl)ethyl]-6-phenylnicotinamide], for which the pIC50 was 7.43.

Consider `CC(C)N1CCC(CNC(=O)c2ccc(-c3cccc(F)c3)nc2)CC1` [Example 117, 6-(3-Fluorophenyl)-N-[(1-isopropylpiperidin-4-yl)methyl]nicotinamide], for which the pIC50 was 6.97.

In the case of `O=C(NCCCN1CCCC1=O)c1ccc(-c2ccccc2)nc1` [Example 350, N-[3-(2-Oxopyrrolidin-1-yl)propyl]-6-phenylnicotinamide], the pIC50 is 8.17.

Consider `CCC(C)NC(=O)c1ccc(-c2cccc(F)c2)nc1` (stereo not shown) [Example 426, N-sec-Butyl-6-(3-fluorophenyl)nicotinamide], for which the pIC50 was 6.95.

Regarding `COC(C)(C)CNC(=O)c1ccc(-c2cccc(F)c2)nc1` [Example 194, 6-(3-Fluorophenyl)-N-(2-methoxy-2-methylpropyl)nicotinamide], the pIC50 was 6.42.

As to `CS(=O)(=O)c1cccc(CNC(=O)c2ccc(-c3cccc(F)c3)nc2)c1` [Example 189, 6-(3-Fluorophenyl)-N-[3-(methylsulfonyl)benzyl] nicotinamide], the pIC50 was 8.17.

As to `CC(C)(CNC(=O)c1ccc(-c2ccccc2)nc1)N1CCOCC1` [Example 353, N-(2-Methyl-2-morpholin-4-ylpropyl)-6-phenylnicotinamide], the pIC50 was 7.60.

Regarding `CC(C)N1CCCC(CNC(=O)c2ccc(-c3cccc(F)c3)nc2)C1` (stereo not shown) [Example 116, 6-(3-Fluorophenyl)-N-[(1-isopropylpiperidin-3-yl)methyl]nicotinamide], the pIC50 was 6.79.

Turning to `O=C(Nc1ccc(F)cc1)c1ccc(-c2ccccc2)nc1` [Example 521, N-(4-Fluorophenyl)-6-phenylnicotinamide], the pIC50 was 8.32.

Regarding `COc1ccc(CCc2nnc(CNC(=O)c3ccc(-c4cccc(F)c4)nc3)[nH]2)cc1` [Example 31, 6-(3-Fluorophenyl)-N-({5-[2-(4-methoxyphenyl)ethyl]-4H-1,2,4-triazol-3-yl}methyl)nicotinamide], the pIC50 was 7.46.

For `COc1cccc(-c2ccc(C(=O)NCCC3CCCCO3)cn2)c1` (stereo not shown) [Example 304, 6-(3-Methoxyphenyl)-N-[2-(tetrahydro-2H-pyran-2-yl)ethyl]nicotinamide], the pIC50 was 6.75.

On to `CCOC(=O)CC(NC(=O)c1ccc(-c2cccc(OC)c2)nc1)c1ccc(OC)cc1` (stereo not shown) [Example 294, Ethyl 3-(4-methoxyphenyl)-3-({[6-(3-methoxyphenyl)pryidin-3-yl]carbonyl}amino) propanoate], for which the pIC50 was 6.72.

`COCCN1CC(CNC(=O)c2ccc(-c3cccc(F)c3)nc2)CC1=O` (stereo not shown) [Example 20, 6-(3-Fluorophenyl)-N-{[1-(2-methoxyethyl)-5-oxopyrrolidin-3-yl]methyl}nicotinamide]: the pIC50 is 7.45.

Turning to `COC(=O)CC(NC(=O)c1ccc(-c2cccc(OC)c2)nc1)c1cccnc1` (stereo not shown) [Example 337, Methyl 3-({[6-(3-methoxyphenyl)pyridin-3-yl]carbonyl}amino)-3-pyridin-3-ylpropanoate], the pIC50 was 6.40.

In the case of `CCc1nccn1CCCNC(=O)c1ccc(-c2cccc(F)c2)nc1` [Example 86, N-[3-(2-Ethyl-1H-imidazol-1-yl)propyl]-6-(3-fluorophenyl)nicotinamide], the negative-log IC50 (pIC50) is 7.83.

With `Cc1cccc(-c2ccc(C(=O)NCc3ccc(S(C)(=O)=O)cc3)cn2)c1` [Example 247, 6-(3-Methylphenyl)-N-[4-(methylsulfonyl)benzyl] nicotinamide], the pIC50 is 7.74.

In the case of `CC[C@H](CC#N)NC(=O)c1ccc(-c2cccc(F)c2)nc1` [Example 65, N-[(1R)-1-(Cyanomethyl)propyl]-6-(3-fluorophenyl)nicotinamide], the pIC50 was 7.22.

With `COc1ccc(CNC(=O)c2ccc(-c3ccc(F)cc3)nc2)cc1OC` [Example 461, N-(3,4-Dimethoxybenzyl)-6-(4-fluorophenyl) nicotinamide], the pIC50 is 7.04.

Take `O=C(NC(c1ccc(F)c(F)c1)c1nn[nH]n1)c1ccc(-c2cccc(F)c2)nc1` (stereo not shown) [Example 59, N-[(3,4-Difluorophenyl)(2H-tetrazol-5-yl)methyl]-6-(3-fluorophenyl)nicotinamide]: the pIC50 was 7.97.

`CSc1ccc(CNC(=O)c2ccc(-c3ccc(F)cc3)nc2)cc1` [Example 470, 6-(4-Fluorophenyl)-N-[4-(methylthio)benzyl]nicotinamide]: the pIC50 was at most 6.00.

`Cc1cn2cc(CNC(=O)c3ccc(-c4cccc(F)c4)nc3)nc2s1` [Example 94, 6-(3-Fluorophenyl)-N-[(2-methylimidazo[2,1-b][1,3]thiazol-6-yl)methyl]nicotinamide]: the pIC50 was 7.83.

`CCOC(=O)CC(NC(=O)c1ccc(-c2ccccc2)nc1)c1ccc(OC)cc1` (stereo not shown) [Example 362, Ethyl 3-(4-methoxyphenyl)-3-{[(6-phenylpyridin-3-yl)carbonyl]amino}propanoate]: the pIC50 is 7.92.

Regarding `COc1ccc(CNC(=O)c2ccc(-c3cc(F)cc(F)c3)nc2)cc1OC` [Example 567, 6-(3,5-Difluorophenyl)-N-(3,4-dimethoxybenzyl)nicotinamide], the pIC50 was 7.97.

Consider `CCOC(=O)Cc1noc(CNC(=O)c2ccc(-c3cccc(F)c3)nc2)n1` [Example 201, Ethyl {5-[({[6-(3-fluorophenyl)pyridin-3-yl]carbonyl}amino)methyl]-1,2,4-oxadiazol-3-yl}acetate], for which the pIC50 is 7.23.

Turning to `O=C(NCCC1CCCCO1)c1cnc(-c2cccc(F)c2)c(Cl)c1` (stereo not shown) [Example 553, 5-Chloro-6-(3-fluorophenyl)-N-[2-(tetrahydro-2H-pyran-2-yl)ethyl]nicotinamide], the pIC50 is 7.50.

Take `O=C(NCCNc1nccn2ccnc12)c1ccc(-c2cccc(F)c2)nc1` [Example 104, 6-(3-Fluorophenyl)-N-[2-(imidazo[1,2-a]pyrazin-8-ylamino)ethyl]nicotinamide]: the pIC50 was 8.46.

Consider `CN1CCc2nc(N3CCCC(CNC(=O)c4ccc(-c5cccc(F)c5)nc4)C3)ncc2C1` (stereo not shown) [Example 89, 6-(3-Fluorophenyl)-N-{[1-(6-methyl-5,6,7,8-tetrahydropyrido[4,3-d]pyrimidin-2-yl)piperidin-3-yl]methyl}nicotinamide], for which the pIC50 is 8.21.

For `Cc1cc(C)nc(CCNC(=O)c2ccc(-c3cccc(F)c3)nc2)n1` [Example 143, N-[2-(4,6-Dimethylpyrimidin-2-yl)ethyl]-6-(3-fluorophenyl)nicotinamide], the pIC50 was 7.96.

In the case of `O=C(NCCc1nccs1)c1ccc(-c2cccc(F)c2)nc1` [Example 93, 6-(3-Fluorophenyl)-N-[2-(1,3-thiazol-2-yl)ethyl]nicotinamide], the pIC50 is 7.90.

In the case of `O=C(NCc1noc(C(=O)N2CC[C@@H](O)C2)n1)c1ccc(-c2cccc(F)c2)nc1` [Example 211, 6-(3-Fluorophenyl)-N-[(5-{[(3R)-3-hydroxypyrrolidin-1-yl]carbonyl}-1,2,4-oxadiazol-3-yl)methyl]nicotinamide], the pIC50 is 6.44.

Take `CC(C)(CO)CNC(=O)c1ccc(-c2cccc(F)c2)nc1` [Example 447, 6-(3-Fluorophenyl)-N-(3-hydroxy-2,2-dimethylpropyl) nicotinamide]: the pIC50 is 7.33.

In the case of “6-(3-Fluorophenyl)-N-{[4-(4- methoxybenzoyl)-5- oxomorpholin-2- yl]methyl}nicotinamide [Example 72]”, the pIC50 is 7.29.

Take `CCOC(=O)Cc1ccc(CNC(=O)c2ccc(-c3cccc(F)c3)nc2)cc1` [Example 205, Ethyl {4-[({[6-(3-fluorophenyl)pyridin-3-yl]carbonyl}amino)methyl]phenyl}acetate]: the pIC50 was 7.52.

As for `COc1ccc(C(N)CC(=O)NC(=O)c2ccc(-c3ccc(F)cc3)nc2)cc1OC` (stereo not shown) [Example 466, N-[3-Amino-3-(3,4-dimethoxyphenyl)propanoyl]-6-(4-fluorophenyl)nicotinamide], the pIC50 was at most 6.00.

Take `COc1cccc(-c2ccc(C(=O)NCc3cccc(F)c3)cn2)c1` [Example 311, N-(3-Fluorobenzyl)-6-(3-methoxyphenyl)nicotinamide]: the pIC50 is 6.43.

Regarding `Cc1cc(C(F)(F)F)nc(CNC(=O)c2ccc(-c3cccc(F)c3)nc2)n1` [Example 98, 6-(3-Fluorophenyl)-N-{[4-methyl-6-(trifluoromethyl)pyrimidin-2-yl]methyl}nicotinamide], the pIC50 was 6.84.

Turning to `O=C(NCc1cc(F)cc2c1OCOC2)c1ccc(-c2ccccc2)nc1` [Example 357, N-[(6-Fluoro-4H-1,3-benzodioxin-8-yl)methyl]-6-phenylnicotinamide], the pIC50 was 8.76.

On to `Cc1cccc(-c2ccc(C(=O)NCCN3CCCC3)cn2)c1` [Example 237, 6-(3-Methylphenyl)-N-(2-pyrrolidin-1-ylethyl)nicotinamide], for which the pIC50 was 6.30.

In the case of `CS(=O)(=O)c1ccc(CNC(=O)c2ccc(-c3ccc(F)cc3)nc2)cc1` [Example 504, 6-(4-Fluorophenyl)-N-[4-(methylsulfonyl)benzyl] nicotinamide], the pIC50 was 6.16.

For `O=C(NC1CCN(Cc2ccc(Cl)c(Cl)c2)C1=O)c1ccc(-c2cccc(F)c2)nc1` (stereo not shown) [Example 160, N-[1-(3,4-Dichlorobenzyl)-2-oxopyrrolidin-3-yl]-6-(3-fluorophenyl)nicotinamide], the pIC50 is 7.39.

As to `CC(C)OCCCNC(=O)c1ccc(-c2cccc(F)c2)nc1` [Example 37, 6-(3-Fluorophenyl)-N-(3-isopropoxypropyl) nicotinamide], the pIC50 was 7.80.

With `Cc1cccc(-c2ccc(C(=O)NC(=O)CC(N)C3CC3)cn2)c1` (stereo not shown) [Example 248, N-(3-Amino-3-cyclopropylpropanoyl)-6-(3-methylphenyl)nicotinamide], the pIC50 is 7.13.
